These results are taken from US12049474B2, “Nucleoside prodrugs and uses related thereto” (Emory University, priority 2019, dated 2024).

SMILES strings stand for the structures. Where “and” joins values, the source holds several entries; their conditions need not be identical. Equal values may be shown once. Where a name gives a salt, the structure may show the parent alone. Read-outs that look alike come from different tables or passages of the source.

Data set [1] in a line: Metabolic stability assay in human liver microsomes (HLM). In kind it is in vitro ADME. Particulars: NADPH, sampled 0-120 min; for HLM t1/2: 3 μM test compound. Here is the method: The LC-MS/MS analysis was performed using Agilent 1260 Infinity II HPLC, coupled with an Agilent G6460 triple quadrupole mass spectrometer (Agilent Technologies, USA). All the data were acquired employing Agilent 6460 Quantitative Analysis data processing software.
Reverse-phase HPLC separation for each compound was achieved either on an Agilent Porshell 120 EC-C8 column (2.1×50 mm, 2.7 μm), or on an Agilent Zorbax XDB C18 column (2.1×50 mm, 3.5 μm) with a mobile phase composed of methanol-water-formic acid or acetonitrile-water-formic acid (0.1%) at a flow rate of 0.5 mL/min (changes for some compounds). Each method was developed in the presence of an internal standard (ISTD) d5-7-ethoxy coumarin. The column temperature was maintained at 40° C. for most of the samples otherwise noted. The detection was operated in the Agilent JetStream electrospray positive ionization using multiple reaction monitoring mode (MRM).
Other MS conditions were as follows: dwell time 100 ms; gas flow 10 L/min; nebulizer pressure 45 psi; delta EMV 200 V; fragmentor voltage and collision energy for individual compounds vary.
Test compounds were dissolved in 100% DMSO or 100% MeOH to make 10 mM stock solutions. Verapamil (Sigma Aldrich) aided as a positive control and was dissolved in 100% DMSO to make 10 mM stock solutions. The 10 mM stock solution of test and control compounds were further diluted in potassium phosphate buffer (100 mM, pH 7.4) to 500 μM to ensure the organic solvent content was <0.2%. Human liver microsomes (HLMs) were purchased from Xenotech at 20 mg/mL. NADPH (Sigma Aldrich) 10 mM stocks were prepared in deionized water.
The HLM assay was prepared in a 1.5 mL Eppendorf tube with a final volume of 1100 μL for duplicate runs. Each reaction contained phosphate buffer (928.4 μL), liver microsomes (55 μL), and test compound resulting in a final concentration of 3 μM (6.6 μL of 500 μM). The reaction was initiated with 110 μL of 10 mM NADPH. Aliquots (100 μL) were removed in duplicate at 0, 15, 30, 60, 120 min (for prodrug compounds) and 0, 5, 10, 15, 30 min (verapamil, positive control compound) time intervals and quenched in cold […] of 100% methanol which contained internal standard (ISTD: d5-7-ethoxy coumarin 4 μM). Before centrifugation each of the aliquoted tubes were vortexed to make sure compounds were in the solution. The aliquots were centrifuged at 12,000 g for 5 min and the supernatant removed and placed in an LC-MS vial. Each time point was assessed using LC-MS and the area, based on the extracted ion, was integrated with respect to the ISTD. Positive controls were conducted at a final volume of 550 μL to give each time point in a single run. A no-NADPH negative control with test or control compound was performed in a single run (150 μL) at the longest time point. Controls were processed and analyzed like the test compounds. Each time point was run in duplicates followed by in-between blank washes to avoid the carryover and to equilibrate the column.
In general terms: Liver microsomes are a subcellular fraction often used to study metabolism.

In a further data set the target is CYP2D6 (Homo sapiens (Human), UniProt P10635). The experiment in a line: biochemical. It counts as biochemical. To be noted: human recombinant CYP2D6, AMMC substrate; read-out: CYP450 IC50 2D6. Here is the method: (§1) The CYP450 inhibition assays utilized microsomes from insect cells expressing human recombinant individual cDNA-expressed CYP isoforms 3A4 and 2D6, as well as the fluorogenic probe that produces fluorescent metabolite. Standard inhibitors were co-incubated with fluorogenic substrates and their inhibitory potential (IC50) was determined. Assay conditions in terms of CYP450 protein concentration and time of incubation were standardized, enzyme kinetics parameters of each fluorescent probe substrate were estimated and IC50 values of inhibitors were determined and validated on different days to check reproducibility.
(§2) A 100 mM sodium phosphate buffer was prepared and adjusted to pH 7.4. In a separate falcon tube, a 2× enzyme/substrate (E/S) solution was prepared in phosphate buffer. The final concentration of CYP2D6 (CORNING®) and […] (AMMC) was 10 nM and 4 μM, and CYP3A4 (CORNING®) and 7-benzyloxy-4-(trifluoromethyl) coumarin (BFC) was 20 nM and 40 μM, respectively. In a separate falcon tube, a 2×NADPH regenerating system (NRS) was prepared in phosphate buffer. The final concentration for each component in the assay was as follows: • CYP2D6 assay: 0.008 mM NADPH, 3.3 mM glucose 6-phosphate, 0.4 U of glucose-6-phosphate dehydrogenase per mL
(§3) Both enzymatic assays were conducted in a 96-well microtiter plate (Black, CORNING® COSTAR®) with a final volume of 100 μL. Preparation of the plate began with the addition of 74 μL of the E/S in the first well, and 50 μL to all subsequent wells (from 2-11). The test compounds (1 μL) were dissolved in the first well to give the first row a final volume of 75 μL. A 1:3 serial dilution of the test compound was conducted by removing 25 μL from the first well and diluting it with the second and so forth until the tenth row. Final concentrations yielded a range from 200 μM-0.01 μM. Well no. 11 contained no inhibitor, and well no. 12 contained no enzyme. Both were used as controls for background fluorescence. The plate was incubated for 30 min at 37° C. After incubation, the reaction was initiated by the addition of 50 μL of the 2×NRS to each well.
Immediately (within 1 min) the fluorescence was measured using a microplate reader (BIOTEK® Synergy Neo2). CYP2D6 was monitored at Ex/Em=410/460 nm, and CYP3A4 monitored at Ex/Em=410/538 nm in kinetic mode that scanned every 5 min for 60 mins. Data was exported and analyzed using Graph Pad Prism 7. […] The IC50 value was derived after the data was fitted on a 10-point curve using a four-parameter logistic regression model.

The target in a further data set is CYP3A4 (Homo sapiens (Human), UniProt P08684). The data set is described as follows: Fluorometric CYP450 enzyme inhibition assay, CYP3A4. It counts as biochemical. Particulars: human recombinant CYP3A4, BFC substrate; read-out: CYP450 IC50 3A4. Here is the method: as §1, §2
as §3, with “The test compounds (1 μL) were dissolved in the first well to give the first row a final volume of 75 μL.” left out
Immediately (within 1 min) the fluorescence was measured using a microplate reader (BIOTEK® Synergy Neo2). […] Data was exported and analyzed using Graph Pad Prism 7. […] The IC50 value was derived after the data was fitted on a 10-point curve using a four-parameter logistic regression model.

The subject of the next data set is HEK293 cells. Particulars: 50% cytotoxic concentration; italicized results: absence of human serum albumin.
Another data set relates to HIV. The experiment in a line: microbe, parasite or virus in culture. Particulars: italicized results: absence of human serum albumin. It counts as cell-based.
The conditions of data set [2]: dogs, cited from earlier work.

Chain of CYP2D6 (P10635 whole entry, canonical isoform): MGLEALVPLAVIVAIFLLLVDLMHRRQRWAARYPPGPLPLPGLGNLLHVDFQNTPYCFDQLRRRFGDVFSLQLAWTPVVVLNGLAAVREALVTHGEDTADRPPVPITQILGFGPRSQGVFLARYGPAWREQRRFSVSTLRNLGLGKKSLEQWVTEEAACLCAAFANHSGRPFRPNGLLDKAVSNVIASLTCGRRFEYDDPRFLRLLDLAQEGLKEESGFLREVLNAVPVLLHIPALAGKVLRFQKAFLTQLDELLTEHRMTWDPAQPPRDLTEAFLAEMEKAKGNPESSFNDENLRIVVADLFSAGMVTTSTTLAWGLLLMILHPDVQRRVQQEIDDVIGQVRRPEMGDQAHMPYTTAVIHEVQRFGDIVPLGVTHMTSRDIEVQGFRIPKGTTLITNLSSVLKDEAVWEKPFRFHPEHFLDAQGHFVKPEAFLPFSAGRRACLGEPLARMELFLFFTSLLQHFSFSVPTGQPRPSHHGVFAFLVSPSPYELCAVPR
Chain of CYP3A4 (P08684 whole entry): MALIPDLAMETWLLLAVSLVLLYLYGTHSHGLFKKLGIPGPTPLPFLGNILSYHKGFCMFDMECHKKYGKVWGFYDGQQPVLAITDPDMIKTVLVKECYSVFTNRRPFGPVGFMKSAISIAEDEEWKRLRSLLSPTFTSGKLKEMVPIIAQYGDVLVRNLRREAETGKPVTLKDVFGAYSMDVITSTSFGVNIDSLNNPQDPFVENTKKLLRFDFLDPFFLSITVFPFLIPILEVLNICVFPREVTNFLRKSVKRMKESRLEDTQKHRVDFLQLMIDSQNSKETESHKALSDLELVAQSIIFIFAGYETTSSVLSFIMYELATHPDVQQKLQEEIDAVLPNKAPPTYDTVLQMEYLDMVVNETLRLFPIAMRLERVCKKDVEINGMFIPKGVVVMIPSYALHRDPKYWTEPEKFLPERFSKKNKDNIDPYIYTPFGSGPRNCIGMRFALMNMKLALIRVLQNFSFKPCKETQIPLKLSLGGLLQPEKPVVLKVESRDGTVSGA

Usually melting point stands for the temperature of the solid-liquid transition. The IC50 is the midpoint of a concentration-inhibition curve. As usually defined, the CC50 is the concentration at which the toxic effect on the cells reaches its halfway point. Low values mean harm at low concentration, high ones better tolerance by the cells. On to `CCCCCCCCCCCCCCCCCCOP(=O)(O)CO[C@H](C)Cn1cnc2c(N)ncnc21.N` [MD-1-105, Ammonium Octadecyl (R)-(((1-(6-amino-9H-purin-9-yl)propan-2-yl)oxy)methyl)phosphonate], for which the melting point is 154 to 184 °C (dec.). Also, in data set [1], the “HLM t1/2” value stood at 13 min. Moreover, the IC50 on CYP2D6 came to 20 µM. Moreover, the half-maximal inhibitory concentration (IC50) on CYP3A4 was 52.9 µM. This molecule also registered a CC50 in the data set on HEK293 cells of 84.1 µM.

For the molecule `CCCCCCCCCCCCCCCOP(=O)(O)CO[C@H](C)Cn1cnc2c(N)ncnc21.N` [MD-1-106, Ammonium Pentadecyl (R)-(((1-(6-amino-9H-purin-9-yl)propan-2-yl)oxy)methyl)phosphonate], the melting point was 162 to 190 °C (dec.). In addition, the “HLM t1/2” value in data set [1] came to 13 min. At CYP2D6, the half-inhibitory concentration (IC50) is 22 µM. Besides, the IC50 on CYP3A4 was 54.9 µM. In the data set with HEK293 cells, the CC50 is more than 100 µM.

For `C[C@H](Cn1cnc2c(N)ncnc21)OCP(=O)(O)OCCCOCCCCCCCCCCCCCCCC(F)(F)F.N` [NP-PD-158, Ammonium [(1R)-2-(6-aminopurin-9-yl)-1-methyl-ethoxy]methyl-[3-(16,16,16-trifluorohexadecoxy)propoxy]phosphinate], in data set [1], the “HLM t1/2” value is given as more than 120 min. For the same molecule, the concentration for half-maximal inhibition (IC50) on CYP2D6 and at CYP3A4 was more than 20 µM throughout. This molecule also returned a CC50 with HEK293 cells of more than 100 µM.

With `CC(C)OC(=O)[C@H](C)N[P@](=O)(CO[C@H](C)Cn1cnc2c(N)ncnc21)Oc1ccccc1` [TAF, tenofovir alafenamide fumarate], the half-life at 3 µM in data set [1] (pH 7.4, 3 μM test compound, read-out: HLM t1/2) is 26 min. For the same molecule, the half-maximal inhibitory concentration (IC50) in the data set with HIV (Human immunodeficiency virus 1, HEK293, read-out: HIV IC50, pseudoviral particles, HEK293 cells) was 0.002 µM; in the data set with HIV (read-out: HIV IC50, pseudoviral particles, HEK293 cells), 0.001 µM; at CYP2D6, more than 50 µM; on CYP3A4, 21 µM. Also, in data set [2] (single oral dose), the “fraction of dose converted to plasma TFV” value is listed as 17%. Besides, in data set [2] (single oral dose), the “fraction of dose sequestered for toxic side effects” value is 82%. In addition, the “fraction of dose that achieved access to plasma unscathed” value in data set [2] (single oral dose) was 18%. Further, the “fraction of a single oral dose extracted by the liver” value in data set [2] is recorded as 65%.

In the case of `C[C@H](Cn1cnc2c(N)ncnc21)OCP(=O)(O)O` [TFV, tenofovir, reference compound], the “HLM t1/2” value in data set [1] is recorded as more than 120 min. The IC50 with HIV (pseudoviral particles, HEK293 cells, read-out: HIV IC50) was 2.06 µM and 1.6 µM; on CYP2D6, more than 50 µM; at CYP3A4, 45.8 µM.
